From US11919901B2 (Syndax Pharmaceuticals, Inc., priority 2021, dated 2024)

Target: Menin-MLL (Homo sapiens (Human), UniProt O00255)
Experiment: Determination of binding constants (Ki) to Menin-MLL (HTRF)
Conditions: HTRF, 0.25 nM H-FL-Menin, 3.2 nM FITC-MLL-4-43, 24 hr incubation; for Ki: read-out: Menin-MLL Ki HTRF Assay: Ki

Menin-MLL, sequence (O00255 whole entry): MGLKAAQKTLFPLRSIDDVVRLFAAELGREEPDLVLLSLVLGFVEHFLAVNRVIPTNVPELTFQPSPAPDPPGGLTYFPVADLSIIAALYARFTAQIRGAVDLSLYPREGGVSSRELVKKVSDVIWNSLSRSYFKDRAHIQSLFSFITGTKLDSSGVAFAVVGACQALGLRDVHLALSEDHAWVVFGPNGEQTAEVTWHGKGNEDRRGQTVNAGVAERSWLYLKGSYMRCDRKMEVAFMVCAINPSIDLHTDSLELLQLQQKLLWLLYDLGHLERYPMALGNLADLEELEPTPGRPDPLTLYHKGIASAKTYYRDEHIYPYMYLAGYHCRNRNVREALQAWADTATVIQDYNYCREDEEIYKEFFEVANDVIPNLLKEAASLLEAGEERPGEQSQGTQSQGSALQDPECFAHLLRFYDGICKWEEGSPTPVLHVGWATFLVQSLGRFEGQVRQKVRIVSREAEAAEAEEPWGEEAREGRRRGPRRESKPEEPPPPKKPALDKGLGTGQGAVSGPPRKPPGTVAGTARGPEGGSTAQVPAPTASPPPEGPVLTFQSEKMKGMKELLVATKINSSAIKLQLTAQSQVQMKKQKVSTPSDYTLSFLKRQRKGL

EC50 [nM] | Structure (SMILES) | Ki [nM]
 | Cc1nc(S(=O)(=O)N[C@@H]2CC[C@@H](CN3CCC4(CC3)CN(c3ncncc3Oc3ccc(F)cc3C(=O)N(C(C)C)[C@H]3CCOC3)C4)OC2)cs1 [Compound 135, 5-Fluoro-N-isopropyl-2-((4-(7-(((2S,5R)-5-((2-methylthiazole)-4-sulfonamido)tetrahydro-2H-pyran-2-yl)methyl)-2,7-diazaspiro[3.5]nonan-2-yl)pyrimidin-5-yl)oxy)-N-((S)-tetrahydrofuran-3-yl)benzamide] | < 1
 | CC(C)N(C)C(=O)c1cc(F)ccc1Oc1cncnc1N1CC2(CCN(C[C@@H]3CC[C@@H](NS(=O)(=O)N(C)C)CO3)CC2)C1 [Compound 137, 2-((4-(7-(((2S,5R)-5-((N,N-Dimethylsulfamoyl)amino)tetrahydro-2H-pyran-2-yl)methyl)-2,7-diazaspiro[3.5]nonan-2-yl)pyrimidin-5-yl)oxy)-5-fluoro-N-isopropyl-N-methylbenzamide] | < 1
 | CC(C)N(C)C(=O)c1cc(F)ccc1Oc1cncnc1N1CC2(CCN(C[C@@H]3CC[C@@H](NS(=O)(=O)c4cnn(C)c4)CO3)CC2)C1 [Compound 139, 5-Fluoro-N-isopropyl-N-methyl-2-((4-(7-(((2S,5R)-5-((1-methyl-1H-pyrazole)-4-sulfonamido)tetrahydro-2H-pyran-2-yl)methyl)-2,7-diazaspiro[3.5]nonan-2-yl)pyrimidin-5-yl)oxy)benzamide] | < 1
 | CCN(C(=O)c1cc(F)ccc1Oc1cncnc1N1CC2(CCN(C[C@@H]3CC[C@@H](NS(=O)(=O)N(C)CC)CO3)CC2)C1)C(C)C [Compound 140, N-Ethyl-2-((4-(7-(((2S,5R)-5-((N-ethyl-N-methylsulfamoyl)amino)tetrahydro-2H-pyran-2-yl)methyl)-2,7-diazaspiro[3.5]nonan-2-yl)pyrimidin-5-yl)oxy)-5-fluoro-N-isopropylbenzamide] | < 1
 | CC(C)NS(=O)(=O)N[C@@H]1CC[C@@H](CN2CCC3(CC2)CN(c2ncncc2Oc2ccc(F)cc2C(=O)N(CC(F)F)C(C)C)C3)OC1 [Compound 150, N-(2,2-Difluoroethyl)-5-fluoro-N-isopropyl-2-((4-(7-(((2S,5R)-5-((N-isopropylsulfamoyl)amino)tetrahydro-2H-pyran-2-yl)methyl)-2,7-diazaspiro[3.5]nonan-2-yl)pyrimidin-5-yl)oxy)benzamide] | < 1
 | CCCNS(=O)(=O)N[C@@H]1CC[C@@H](CN2CCC3(CC2)CN(c2ncncc2Oc2ccc(F)cc2C(=O)N(CC(F)F)C(C)C)C3)OC1 [Compound 151, N-(2,2-Difluoroethyl)-5-fluoro-N-isopropyl-2-((4-(7-(((2S,5R)-5-((N-propylsulfamoyl)amino)tetrahydro-2H-pyran-2-yl)methyl)-2,7-diazaspiro[3.5]nonan-2-yl)pyrimidin-5-yl)oxy)benzamide] | < 1
< 50 | CCS(=O)(=O)N[C@@H]1CC[C@@H](CN2CCC3(CC2)CN(c2ncncc2Oc2ccc(F)cc2C(=O)N(CC(F)(F)F)C(C)C)C3)OC1 [Compound 152, 2-((4-(7-(((2S,5R)-5-(Ethylsulfonamido)tetrahydro-2H-pyran-2-yl)methyl)-2,7-diazaspiro[3.5]nonan-2-yl)pyrimidin-5-yl)oxy)-5-fluoro-N-isopropyl-N-(2,2,2-trifluoroethyl)benzamide] | < 1
 | C[C@@H]1COC[C@@H](C)N1C(=O)c1cc(F)ccc1Oc1cncnc1N1CC2(CCN(C[C@@H]3CC[C@@H](NS(=O)(=O)NCC(F)(F)F)CO3)CC2)C1 [Compound 157, {[(3R,6S)-6-{[2-(5-{2-[(3R,5R)-3,5-Dimethylmorpholine-4-carbonyl]-4-fluorophenoxy}pyrimidin-4-yl)-2,7-diazaspiro[3.5]nonan-7-yl]methyl}oxan-3-yl]sulfamoyl}(2,2,2-trifluoroethyl)amine] | < 1
 | C[C@@H]1COC[C@@H](C)N1C(=O)c1cc(F)ccc1Oc1cncnc1N1CC2(CCN(C[C@@H]3CC[C@@H](NS(=O)(=O)NC4CC4)CO3)CC2)C1 [Compound 159, N-[(3R,6S)-6-{[2-(5-{2-[(3R,5R)-3,5-Dimethylmorpholine-4-carbonyl]-4-fluorophenoxy}pyrimidin-4-yl)-2,7-diazaspiro[3.5]nonan-7-yl]methyl}oxan-3-yl](cyclopropylamino)sulfonamide] | < 1
 | C[C@@H]1COC[C@H](C)N1C(=O)c1cc(F)ccc1Oc1cncnc1N1CC2(CCN(C[C@@H]3CC[C@@H](NS(=O)(=O)N(C)C)CO3)CC2)C1 [Compound 160, {[(3R,6S)-6-{[2-(5-{2-[(3R,5S)-3,5-Dimethylmorpholine-4-carbonyl]-4-fluorophenoxy}pyrimidin-4-yl)-2,7-diazaspiro[3.5]nonan-7-yl]methyl}oxan-3-yl]sulfamoyl}dimethylamine] | < 1
 | C[C@@H]1COC[C@H](C)N1C(=O)c1cc(F)ccc1Oc1cncnc1N1CC2(CCN(C[C@@H]3CC[C@@H](NS(=O)(=O)NCC(F)(F)F)CO3)CC2)C1 [Compound 162, {[(3R,6S)-6-{[2-(5-{2-[(3R,5S)-3,5-Dimethylmorpholine-4-carbonyl]-4-fluorophenoxy}pyrimidin-4-yl)-2,7-diazaspiro[3.5]nonan-7-yl]methyl}oxan-3-yl]sulfamoyl}(2,2,2-trifluoroethyl)amine] | < 1
 | C[C@@H]1COC[C@H](C)N1C(=O)c1cc(F)ccc1Oc1cncnc1N1CC2(CCN(C[C@@H]3CC[C@@H](NS(=O)(=O)NC4CC4)CO3)CC2)C1 [Compound 163, N-[(3R,6S)-6-{[2-(5-{2-[(3R,5S)-3,5-Dimethylmorpholine-4-carbonyl]-4-fluorophenoxy}pyrimidin-4-yl)-2,7-diazaspiro[3.5]nonan-7-yl]methyl}oxan-3-yl](cyclopropylamino)sulfonamide] | < 1
 | CC(C)N(C(=O)c1cc(F)ccc1Oc1cncnc1N1CC2(CCN(C[C@@H]3CC[C@@H](NS(C)(=O)=O)CO3)CC2)C1)[C@@H]1CCOC1 [Compound 166, 5-Fluoro-N-isopropyl-2-((4-(7-(((2S,5R)-5-(methylsulfonamido)tetrahydro-2H-pyran-2-yl)methyl)-2,7-diazaspiro[3.5]nonan-2-yl)pyrimidin-5-yl)oxy)-N-((R)-tetrahydrofuran-3-yl)benzamide] | < 1
 | CC(C)N(C(=O)c1cc(F)ccc1Oc1cncnc1N1CC2(CCN(C[C@@H]3CC[C@@H](NS(=O)(=O)N4CCC4)CO3)CC2)C1)[C@@H]1CCOC1 [Compound 168, 2-((4-(7-(((2S,5R)-5-(Azetidine-1-sulfonamido)tetrahydro-2H-pyran-2-yl)methyl)-2,7-diazaspiro[3.5]nonan-2-yl)pyrimidin-5-yl)oxy)-5-fluoro-N-isopropyl-N-((R)-tetrahydrofuran-3-yl)benzamide] | < 1
 | CC(C)N(C(=O)c1cc(F)ccc1Oc1cncnc1N1CC2(CCN(C[C@@H]3CC[C@@H](NS(=O)(=O)N4CCCC4)CO3)CC2)C1)[C@@H]1CCOC1 [Compound 169, 5-Fluoro-N-isopropyl-2-((4-(7-(((2S,5R)-5-(pyrrolidine-1-sulfonamido)tetrahydro-2H-pyran-2-yl)methyl)-2,7-diazaspiro[3.5]nonan-2-yl)pyrimidin-5-yl)oxy)-N-((R)-tetrahydrofuran-3-yl)benzamide] | < 1
 | CCN(C)S(=O)(=O)N[C@@H]1CC[C@@H](CN2CCC3(CC2)CN(c2ncncc2Oc2ccc(F)cc2C(=O)N(C(C)C)[C@@H]2CCOC2)C3)OC1 [Compound 170, 2-((4-(7-(((2S,5R)-5-((N-Ethyl-N-methylsulfamoyl)amino)tetrahydro-2H-pyran-2-yl)methyl)-2,7-diazaspiro[3.5]nonan-2-yl)pyrimidin-5-yl)oxy)-5-fluoro-N-isopropyl-N-((R)-tetrahydrofuran-3-yl)benzamide] | < 1
 | CC(C)N(C(=O)c1cc(F)ccc1Oc1cncnc1N1CC2(CCN(C[C@@H]3CC[C@@H](NS(=O)(=O)NCC(F)(F)F)CO3)CC2)C1)[C@@H]1CCOC1 [Compound 171, 5-Fluoro-N-isopropyl-N-((R)-tetrahydrofuran-3-yl)-2-((4-(7-(((2S,5R)-5-((N-(2,2,2-trifluoroethyl)sulfamoyl)amino)tetrahydro-2H-pyran-2-yl)methyl)-2,7-diazaspiro[3.5]nonan-2-yl)pyrimidin-5-yl)oxy)benzamide] | < 1
 | CCNS(=O)(=O)N[C@@H]1CC[C@@H](CN2CCC3(CC2)CN(c2ncncc2Oc2ccc(F)cc2C(=O)N(C(C)C)[C@@H]2CCOC2)C3)OC1 [Compound 172, 2-((4-(7-(((2S,5R)-5-((N-ethylsulfamoyl)amino)tetrahydro-2H-pyran-2-yl)methyl)-2,7-diazaspiro[3.5]nonan-2-yl)pyrimidin-5-yl)oxy)-5-fluoro-N-isopropyl-N-((R)-tetrahydrofuran-3-yl)benzamide] | < 1
 | CC(C)N(C(=O)c1cc(F)ccc1Oc1cncnc1N1CC2(CCN(C[C@@H]3CC[C@@H](NS(C)(=O)=O)CO3)CC2)C1)[C@H]1CCOC1 [Compound 173, 5-Fluoro-N-isopropyl-2-((4-(7-(((2S,5R)-5-(methylsulfonamido)tetrahydro-2H-pyran-2-yl)methyl)-2,7-diazaspiro[3.5]nonan-2-yl)pyrimidin-5-yl)oxy)-N-((S)-tetrahydrofuran-3-yl)benzamide] | < 1
 | CC(C)N(C(=O)c1cc(F)ccc1Oc1cncnc1N1CC2(CCN(C[C@@H]3CC[C@@H](NS(=O)(=O)C(C)C)CO3)CC2)C1)[C@H]1CCOC1 [Compound 174, 5-Fluoro-N-isopropyl-2-((4-(7-(((2S,5R)-5-((1-methylethyl)sulfonamido)tetrahydro-2H-pyran-2-yl)methyl)-2,7-diazaspiro[3.5]nonan-2-yl)pyrimidin-5-yl)oxy)-N-((S)-tetrahydrofuran-3-yl)benzamide] | < 1
 | CC(C)N(C(=O)c1cc(F)ccc1Oc1cncnc1N1CC2(CCN(C[C@@H]3CC[C@@H](NS(=O)(=O)N4CCCC4)CO3)CC2)C1)[C@H]1CCOC1 [Compound 178, 5-Fluoro-N-isopropyl-2-((4-(7-(((2S,5R)-5-(pyrrolidine-1-sulfonamido)tetrahydro-2H-pyran-2-yl)methyl)-2,7-diazaspiro[3.5]nonan-2-yl)pyrimidin-5-yl)oxy)-N-((S)-tetrahydrofuran-3-yl)benzamide] | < 1
